The test concerns ND3 neuronal cell line. Put plainly: Measurement of nerve growth stimulation effect (neurite bearing assay, neurite length assay, number of cells). The format is cell-based. Particulars: 6 hours, relative cell number, DMSO well = 1. Here is the method:
To evaluate the nerve growth stimulation effect, neurite bearing assay (proportion of neurite-bearing cells) and neurite length assay (neurite length) were analyzed with reference to the method of Topalli et al. (Brain Research 1030 (2004), pp. 116-124).
An ND3 neuronal cell line (European Collection of Authenticated Cell Cultures) was seeded in a DMEM medium containing 10% fetal bovine serum (0.6×10^4 cells/1 mL) in a 24-well plate. 24 hours later, the medium of seeded cells was removed, and a solution in which the compound of the present disclosure that was sequentially diluted in dimethyl sulfoxide (DMSO) was adjusted in DIEM containing 0.1% bovine serum albumin so that the DMSO final concentration was 0.1%, was added to cells (evaluation performed in duplicate). After six hours from the addition, the proportion of neurite-bearing cells (the number of cells having a neurite longer than the diameter of the cell body/number of total cells), and the neurite length per cell were analyzed. The number of total cells, proportion of neurite-bearing cells, and neurite length per cell were analyzed using a MetaMorph Neurite Outgrowth Application Module (Molecular Devices Japan K.K.). The number of cells was defined as the relative cell number, taking the number of cells per well containing DMSO as 1. The relative activity of each compound when the maximum activity of 3-(15-methoxypentadecyl)-2,4,4-trimethylcyclohexa-2-en-1-one (compound 24) in each test was defined as 1 is shown (Table 9). For the compounds for which multiple tests were conducted, the average value was shown. Data with a number of cells of 0.5 or more was also used. Accordingly, if the number of cells was less than 0.5, the neurite length per cell and the proportion of neurite-bearing cells were defined as “-”.

For the molecule `CCOCCCCCCCCCCCCCCCC1=C(C)C(=O)CCC1(C)C` [Compound 25, 3-(15-ethoxypentadecyl)-2,4,4-trimethylcyclohex-2-en-1-one], the viability at 1 µM was found to be 97%, the viability at 3 µM was 103%, the viability at 5 µM was determined as 97% and the viability at 10 µM was 97%. Moreover, the viability at 30 µM came to 98% and the viability at 100 µM amounted to 94%.
On to `CC1=C(CCCCCCCCCCCCCCCOC(C)C)C(C)(C)CCC1=O` [Compound 26, 3-(15-isopropoxypentadecyl)-2,4,4-trimethylcyclohex-2-en-1-one], for which the viability at 1 µM was found to be 102%, the viability at 3 µM turned out to be 100%, the viability at 5 µM is 93% and the viability at 10 µM was found to be 90%. Moreover, the viability at 30 µM stood at 98% and the viability at 100 µM amounted to 101%.
Regarding `[2H]C([2H])([2H])OCCCCCCCCCCCCCCCC1=C(C)C(=O)CCC1(C)C` [Compound 27, 3-(15-(methoxy-d3)pentadecyl)-2,4,4-trimethylcyclohex-2-en-1-one], the viability at 3 µM was 90%, the viability at 5 µM turned out to be 87%, the viability at 10 µM was 83% and the viability at 30 µM was 83%. Besides, the viability at 100 µM is 88%.
As for `[2H]C([2H])(CCCCCCCCCCCCCCC1=C(C)C(=O)CCC1(C)C)OC` [Compound 28, 3-(15-methoxypentadecyl-15,15-d2)-2,4,4-trimethylcyclohex-2-en-1-one], the viability at 1 µM was determined as 92%, the viability at 3 µM was found to be 86%, the viability at 5 µM was 71% and the viability at 10 µM was determined as 68%. Besides, the viability at 30 µM is 77% and the viability at 100 µM was 86%.
With `COCCCCCCCCCCCCCCCCC1=C(C)C(=O)CCC1(C)C` [Compound 29, 3-(16-methoxyhexadecyl)-2,4,4-trimethylcyclohex-2-en-1-one], the viability at 1 µM stood at 107%, the viability at 3 µM is 98%, the viability at 5 µM is 96% and the viability at 10 µM was determined as 92%. Moreover, the viability at 30 µM was 97% and the viability at 100 µM was 93%.
Take `CCOCCCCCCCCCCCCCCCCC1=C(C)C(=O)CCC1(C)C` [Compound 30, 3-(16-ethoxyhexadecyl)-2,4,4-trimethylcyclohex-2-en-1-one]: the viability at 1 µM is 88%, the viability at 3 µM came out at 91%, the viability at 5 µM was determined as 83% and the viability at 10 µM was 87%. In addition, the viability at 30 µM stood at 95% and the viability at 100 µM amounted to 98%.
As to `CC1=C(CCCCCCCCCCCCCCCCOC(C)C)C(C)(C)CCC1=O` [Compound 31, 3-(16-isopropoxyhexadecyl)-2,4,4-trimethylcyclohex-2-en-1-one], the viability at 1 µM stood at 99%, the viability at 3 µM is 93%, the viability at 5 µM was found to be 75% and the viability at 10 µM worked out at 77%. Moreover, the viability at 30 µM stood at 84% and the viability at 100 µM was determined as 93%.
`CC1=C(CCCCCCCCCCCCCCC(N)=O)C(C)(C)CCC1=O` [Compound 32, 15-(2,6,6-trimethyl-3-oxocyclohex-1-en-1-yl)pentadecanamide]: the viability at 1 µM came to 92%, the viability at 3 µM stood at 93%, the viability at 5 µM amounted to 81% and the viability at 10 µM came to 81%. For the same molecule, the viability at 30 µM is 54% and the viability at 100 µM came to 9%.
With `CNC(=O)CCCCCCCCCCCCCCC1=C(C)C(=O)CCC1(C)C` [Compound 33, N-methyl-15-(2,6,6-trimethyl-3-oxocyclohex-1-en-1-yl)pentadecanamide], the viability at 1 µM worked out at 92%, the viability at 3 µM amounted to 90%, the viability at 5 µM was 83% and the viability at 10 µM worked out at 86%. Besides, the viability at 30 µM was determined as 91% and the viability at 100 µM stood at 80%.
For `CC1=C(CCCCCCCCCCCCCCC#N)C(C)(C)CCC1=O` [Compound 34, 15-(2,6,6-trimethyl-3-oxocyclohex-1-en-1-yl)pentadecanitrile], the viability at 1 µM was determined as 106%, the viability at 3 µM is 101%, the viability at 5 µM was 96% and the viability at 10 µM was 98%. Further, the viability at 30 µM is 98% and the viability at 100 µM was 97%.
Consider `CC1=C(CCCCCCCCCCCCCCCOC(N)=O)C(C)(C)CCC1=O` [Compound 35, 15-(2,6,6-trimethyl-3-oxocyclohex-1-en-1-yl)pentadecylcarbamate], for which the viability at 1 µM turned out to be 94%, the viability at 3 µM was found to be 94%, the viability at 5 µM was 99% and the viability at 10 µM turned out to be 82%. The viability at 30 µM came out at 16% and the viability at 100 µM is 31%.
On to `CC1=C(CCCCCCCCCCCCCCCOC(=O)N(C)C)C(C)(C)CCC1=O` [Compound 36, 15-(2,6,6-trimethyl-3-oxocyclohex-1-en-1-yl)pentadecyl dimethylcarbamate], for which the viability at 1 µM amounted to 91%, the viability at 3 µM was determined as 107%, the viability at 5 µM came to 97% and the viability at 10 µM was 94%. The viability at 30 µM turned out to be 98% and the viability at 100 µM worked out at 86%.
Consider `COCCCCCCCCCCCCCCCC1=CC(=O)CCC1` [Compound 37, 3-(15-methoxypentadecyl)cyclohex-2-en-1-one], for which the viability at 1 µM came out at 99%, the viability at 3 µM stood at 102%, the viability at 5 µM worked out at 84% and the viability at 10 µM came out at 89%. Also, the viability at 30 µM amounted to 107% and the viability at 100 µM came to 97%.
In the case of `COCCCCCCCCCCCCCCCC1=C(C)C(=O)CCC1` [Compound 38, 3-(15-methoxypentadecyl)-2-methylcyclohex-2-en-1-one], the viability at 1 µM turned out to be 96%, the viability at 3 µM is 101%, the viability at 5 µM was found to be 91% and the viability at 10 µM turned out to be 86%. Moreover, the viability at 30 µM stood at 80% and the viability at 100 µM was found to be 52%.
As for `COCCCCCCCCCCCCCCCC1=CC(=O)CCC1(C)C` [Compound 39, 3-(15-methoxypentadecyl)-4,4-dimethylcyclohex-2-en-1-one], the viability at 1 µM was determined as 83%, the viability at 3 µM is 100%, the viability at 10 µM is 97% and the viability at 30 µM was 97%. The viability at 100 µM is 49%.
For `COCCCCCCCCCCCCCCCC1=C(I)C(=O)CCC1(C)C` [Compound 40, 2-iodo-3-(15-methoxypentadecyl)-4,4-dimethylcyclohex-2-en-1-one], the viability at 1 µM came to 94%, the viability at 3 µM was 104%, the viability at 5 µM turned out to be 97% and the viability at 10 µM was determined as 93%. Moreover, the viability at 30 µM amounted to 103% and the viability at 100 µM was found to be 98%.
For the molecule `COCCCCCCCCCCCCCCCC1=C(C)C(=O)C=CC1(C)C` [Compound 41, 3-(15-methoxypentadecyl)-2,4,4-trimethylcyclohex-2,5-dien-1-one], the viability at 1 µM was 110%, the viability at 3 µM worked out at 112%, the viability at 5 µM was 82% and the viability at 10 µM came out at 93%. For the same molecule, the viability at 30 µM amounted to 109% and the viability at 100 µM was 114%.

Usually viability stands for a read-out of living cells in per cent, often relative to untreated cells.
